# Results published in patent US20070093493A1, “Treatment of benign prostatic hypertrophy and lower urinary tract symptoms” (LILLY ICOS LLC, priority 2005, published 2007).
# Key:
# Type in all cases: in vivo, human
# [1] = tested on: men suffering from moderate to severe LUTS secondary to BPH; experiment: same clinical study: safety / tolerability of once a day dosing; conditions: dosed once a day, 5 mg then 20 mg
# Procedure: (§1) The efficacy and safety of Compound (I) administered once a day for LUTS secondary to BPH in male humans was tested. In particular, the efficacy and safety of Compound (I) dosed once a day was assessed in men suffering from moderate to severe LUTS secondary to BPH in a randomized, double-blind, placebo-controlled, parallel-group, dose-escalation study. Patients were treated with placebo for four weeks (single blind) to evaluate treatment compliance and establish baseline International Prostate Symptom Score (IPSS) and uroflowmetry values. After stratification by baseline IPSS (13-19, moderate LUTS; 20-35, severe LUTS), geographic region, and prior α-blocker therapy, 281 men were randomly assigned to two groups: (1) Compound (I) (5 mg for 6 weeks followed by dose escalation to 20 mg for 6 weeks) or (2) placebo (12 weeks). The primary efficacy end point was change in IPSS at 6 and 12 weeks. Secondary efficacy endpoints included changes in IPSS Quality of Life (QoL) index, BPH Impact Index (BII), uroflowmetry values, and a Global Assessment Question (LUTS GAQ) (Has the treatment you have been taking since your last visit improved your urinary symptoms?). Responses to Compound (I) 5 mg (6 weeks) or Compound (I) 5 mg followed by 20 mg (5/20 mg; 12 weeks total) were compared with placebo using ANCOVA (IPSS, BII, uroflowmetry values) and logistic linear regression (LUTS GAQ) models.
# [2] = tested on: men suffering from moderate to severe LUTS secondary to BPH; experiment: randomized, double-blind, placebo-controlled, parallel-group, dose-escalation study, once a day dosing: efficacy in LUTS secondary to BPH
# Procedure: as §1
# [3] = tested on: men with LUTS/BPH who were sexually active and also had erectile dysfunction; experiment: same clinical study: erectile function (IIEF EF domain) in the subset with erectile dysfunction; conditions: for increase in International Index of Erectile Function (IIEF) EF domain score: LS Means, p<0.001
# Procedure: The efficacy and safety of Compound (I) administered once a day for LUTS secondary to BPH in male humans was tested. In particular, the efficacy and safety of Compound (I) dosed once a day was assessed in men suffering from moderate to severe LUTS secondary to BPH in a randomized, double-blind, placebo-controlled, parallel-group, dose-escalation study.
# as §1, with “Patients” for “The efficacy and safety of Compound (I) administered once a day for LUTS secondary to BPH in male humans was tested. In particular, the efficacy and safety of Compound (I) dosed once a day was assessed in men suffering from moderate to severe LUTS secondary to BPH in a randomized, double-blind, placebo-controlled, parallel-group, dose-escalation study. Patients”
# At 6 weeks (5 mg) and 12 weeks (5/20 mg) Compound (I) improved change from baseline scores for IPSS, IPSS QoL, BII, and LUTS GAQ compared with placebo. Peak flow rate (Qmax) changes were similar in placebo and Compound (I) treatment groups.
# [4] = at 6 weeks (5 mg) and 12 weeks (5/20 mg), once a day, men
compound,measurement,setting,value
"CN1CC(=O)N2[C@H](c3ccc4c(c3)OCO4)c3[nH]c4ccccc4c3C[C@@H]2C1=O [Compound (I), (6R,12aR)-2,3,6,7,12,12a-hexahydro-2-methyl-6-(3,4-methylenedioxyphenyl)pyrazino[2′,1′:6:1]pyrido[3,4-b]indole-1,4-dione]",tolerability,[1],well tolerated
same,LUTS GAQ compared with placebo,[2]; [4],improved
same,change from baseline score for BII compared with placebo,[2]; [4],improved
same,change from baseline score for IPSS QoL compared with placebo,[2]; [4],improved
same,change from baseline score for IPSS compared with placebo,[2]; [4],improved
same,efficacy in the treatment of LUTS secondary to BPH,"[2]; dosed once a day, summary",statistically significant and clinically meaningful efficacy
same,Peak flow rate (Qmax) changes versus placebo,"[2]; uroflowmetry, placebo and Compound (I) treatment groups",similar
same,increase in International Index of Erectile Function (IIEF) EF domain score,"[3]; 5 mg once a day, 6 weeks, vs. 0.6 placebo",6.0
same,increase in International Index of Erectile Function (IIEF) EF domain score,"[3]; 5/20 mg once a day, 12 weeks total, vs. 1.4 placebo",7.7
same,erectile function in men with both LUTS and MED,"[3]; dosed once a day, summary",improved erectile function
